Laboratory results taken from ChEMBL document CHEMBL1201862, “PubChem BioAssay data set” (2004).
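Values below derive from 48-hour exposures of cells grown in 96-well plates, with endpoints linearly interpolated between the two concentrations bracketing the appropriate inhibition level. GI50: concentration for 50% inhibition of growth.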 The source made the active and inactive calls. No stated cut-off is given here; in the data, active = GI50 up to about 1.1 µM and inactive = higher.

What was measured:
Assay in all cases: NCI tumour cell line growth inhibition, 48 h
M19-MEL = tested on: M19-MEL
XF498 = tested on: XF498
DMS-273 = tested on: DMS-273
DLD-1 = tested on: DLD-1
RXF 631 = tested on: RXF 631
SNB-78 = tested on: SNB-78
DMS-114 = tested on: DMS-114
KM-20L2 = tested on: KM-20L2
HOP-18 = tested on: HOP-18

SMILES	GI50 (M19-MEL)	GI50 (XF498)	GI50 (DMS-273)	GI50 (DLD-1)	GI50 (RXF 631)	GI50 (SNB-78)	GI50 (DMS-114)	GI50 (KM-20L2)	GI50 (HOP-18)
O=C1CC[C@H]2CNC(=O)C[C@H]2C1	> 100 µM (inactive)	> 100 µM (inactive)	> 100 µM (inactive)	> 100 µM (inactive)	> 100 µM (inactive)	> 100 µM (inactive)	–	–	–
CCN1CCN(c2ccc(Nc3ccnc4ccc5nn(C)nc5c34)cc2)CC1	16.1 µM (inactive)	13.9 µM (inactive)	–	11.6 µM (inactive)	10 µM (inactive)	14.2 µM (inactive)	10.1 µM (inactive)	8.36 µM (inactive)	–
CCC(C)(C)C(=O)O[C@H]1C[C@@H](C)C=C2C=C[C@H](C)[C@H](CC[C@@H]3C[C@@H](O)CC(=O)O3)[C@H]21 [SIMVASTATIN]	1.56 µM (inactive)	> 30 µM (inactive)	2.88 µM (inactive)	> 30 µM (inactive)	0.55 µM (active)	> 30 µM (inactive)	23.7 µM (inactive)	12.3 µM (inactive)	> 30 µM (inactive)
COC(=O)/C(=N\Nc1nnc(C)n1N)C(C#N)c1ccc(Cl)cc1 (stereo not given)	> 100 µM (inactive)	> 100 µM (inactive)	> 100 µM (inactive)	> 100 µM (inactive)	–	> 100 µM (inactive)	58.1 µM (inactive)	> 100 µM (inactive)	> 100 µM (inactive)
NC(=S)N/N=C(\C(=O)Nc1ccc(Cl)c(Cl)c1)C1=NN(c2ccccc2)C(c2cccc([N+](=O)[O-])c2)CC1=O (stereo not given)	18.4 µM (inactive)	34.3 µM (inactive)	11.7 µM (inactive)	19.4 µM (inactive)	12 µM (inactive)	62.4 µM (inactive)	20.7 µM (inactive)	20.7 µM (inactive)	29.1 µM (inactive)
C=CCN1C(=O)C/C(=C2/CCC(=O)N2CC=C)C1=O	> 100 µM (inactive)	–	> 100 µM (inactive)	> 100 µM (inactive)	> 100 µM (inactive)	> 100 µM (inactive)	> 100 µM (inactive)	> 100 µM (inactive)	> 100 µM (inactive)
N#Cc1c(-c2ccccc2)cc(-c2ccc(N)cc2)[nH]c1=O	> 100 µM (inactive)	–	> 100 µM (inactive)	> 100 µM (inactive)	> 100 µM (inactive)	> 100 µM (inactive)	> 100 µM (inactive)	> 100 µM (inactive)	> 100 µM (inactive)
N#Cc1ccc(C(C2C(=O)NC(=O)NC2=O)C2C(=O)NC(=O)NC2=O)cc1	> 100 µM (inactive)	–	> 100 µM (inactive)	–	–	–	–	> 100 µM (inactive)	–
CCOC(=O)/C(C(=O)c1ccccc1)=C1\N[C@H](C(=O)OCC)CS1	–	> 100 µM (inactive)	–	> 100 µM (inactive)	> 100 µM (inactive)	> 100 µM (inactive)	–	> 100 µM (inactive)	16.3 µM (inactive)
CCC/C(=N/NC(=O)C(N)=O)C(CC)C(=O)CCC(=O)N(Cc1ccccc1)Cc1ccccc1 (stereo not given)	> 100 µM (inactive)	> 100 µM (inactive)	> 100 µM (inactive)	–	> 100 µM (inactive)	> 100 µM (inactive)	> 100 µM (inactive)	> 100 µM (inactive)	> 100 µM (inactive)
O=C1C(=O)N(c2cccc(C(F)(F)F)c2)C(=O)C(=O)C1c1nc2ccccc2s1	45.1 µM (inactive)	> 100 µM (inactive)	> 100 µM (inactive)	74.3 µM (inactive)	88.1 µM (inactive)	> 100 µM (inactive)	45.8 µM (inactive)	> 100 µM (inactive)	63.7 µM (inactive)
Cc1cc(C)nc(NS(=O)(=O)c2ccc(Nc3c4ccccc4nc4c(C(=O)Nc5ccc(S(=O)(=O)N=C(N)N)cc5)cccc34)cc2)n1	> 100 µM (inactive)	–	> 100 µM (inactive)	> 100 µM (inactive)	> 100 µM (inactive)	> 100 µM (inactive)	> 100 µM (inactive)	> 100 µM (inactive)	> 100 µM (inactive)
O=C1c2ccccc2OP(=O)(OCC(F)(F)F)OC1(C(F)(F)F)C(F)(F)F (stereo not given)	> 100 µM (inactive)	> 100 µM (inactive)	> 100 µM (inactive)	–	–	> 100 µM (inactive)	> 100 µM (inactive)	> 100 µM (inactive)	–
COc1ccc(/C=N\N2C(=O)Cc3ccccc32)cc1	> 100 µM (inactive)	27.4 µM (inactive)	> 100 µM (inactive)	> 100 µM (inactive)	–	91.2 µM (inactive)	–	> 100 µM (inactive)	> 100 µM (inactive)
O=C(CCC(=O)Nc1ccc(Cl)cc1)CC(=O)c1ccc(F)cc1	–	> 100 µM (inactive)	> 100 µM (inactive)	> 100 µM (inactive)	–	> 100 µM (inactive)	–	> 100 µM (inactive)	–
O=C(O)CCc1nn2c(nc1=O)sc1ccc3ccccc3c12	> 100 µM (inactive)	> 100 µM (inactive)	> 100 µM (inactive)	> 100 µM (inactive)	> 100 µM (inactive)	> 100 µM (inactive)	> 100 µM (inactive)	> 100 µM (inactive)	> 100 µM (inactive)
CCOC(=O)NC(=O)c1cn(C2OC(COC(=O)CCCCCCCCC(=O)OCC3OC(n4cc(C(=O)NC(=O)OCC)c(=O)[nH]c4=O)C(O)C3O)C(O)C2O)c(=O)[nH]c1=O (stereo not given)	> 100 µM (inactive)	> 100 µM (inactive)	> 100 µM (inactive)	> 100 µM (inactive)	> 100 µM (inactive)	> 100 µM (inactive)	> 100 µM (inactive)	> 100 µM (inactive)	> 100 µM (inactive)
CC1=C(C(=O)O)N2C(=O)[C@@H](NC(=O)C(c3ccccc3)N3CSC(=S)N(C(C)C)C3)C2SC1 (stereo not given in full)	> 100 µM (inactive)	> 100 µM (inactive)	> 100 µM (inactive)	> 100 µM (inactive)	–	> 100 µM (inactive)	–	> 100 µM (inactive)	> 100 µM (inactive)
O=C1C2=C(SCCS2)C(=O)c2ccccc21	0.236 µM (active)	1.64 µM (inactive)	1.81 µM (inactive)	1.96 µM (inactive)	1.82 µM (inactive)	–	0.871 µM (active)	1.94 µM (inactive)	–
c1ccc(SC2(Sc3ccccc3)CCCC2)cc1	> 100 µM (inactive)	> 100 µM (inactive)	> 100 µM (inactive)	> 100 µM (inactive)	> 100 µM (inactive)	> 100 µM (inactive)	> 100 µM (inactive)	> 100 µM (inactive)	–
COC1OC(OC)C2C(c3c(C)cc(C)cc3C)=NOC12 (stereo not given)	> 100 µM (inactive)	> 100 µM (inactive)	> 100 µM (inactive)	> 100 µM (inactive)	–	> 100 µM (inactive)	–	> 100 µM (inactive)	> 100 µM (inactive)
Cc1cccc2c(=O)cc(-c3ccccc3)[nH]c12	4.61 µM (inactive)	3.01 µM (inactive)	3.57 µM (inactive)	4.31 µM (inactive)	–	–	3.95 µM (inactive)	4.07 µM (inactive)	–
